Data from patent US20260008760A1, “DIPEPTIDYL PEPTIDASE 1 INHIBITORS AND USES THEREOF” (Insmed Incorporated, priority 2024, published 2026).
Several values for one entry are separate records, joined by “and”; a condition that tells them apart may be missing. Identical values can stand only once.

Experiments:
[1] = target: human DPP1 enzyme (Homo sapiens, UniProt P53634); assay: Human DPP1 Enzyme IC50 Assay; assay type: biochemical; design: was first proteolytically processed into its mature form using recombinant human cathepsin L; purchased R&D Systems; conditions: activated recombinant human DPP1, 400 μM H-Gly-Arg-AMC, 10 minutes pre-incubation at 37° C., pH 6.0; average of n runs; read-out: Avg. IC50 (Human DPP1 enzyme IC50 value ranges)
In short: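 Recombinant human DPP1, pre-activated with cathepsin L (pH 4.5), was preincubated with compound 10 min at 37 °C in MES pH 6.0, 50 mM NaCl, 5 mM DTT, 1% DMSO. Cleavage of 400 μM (final) H-Gly-Arg-AMC followed by fluorescence (350/450 nm) over 90 min at 37 °C; IC50 from four-parameter logistic fit versus no-compound control.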

[2] = target: T1, active mouse DPP1 enzyme (Mus musculus, UniProt P97821); assay: Mouse DPP1 Enzyme IC50 Assay; assay type: biochemical; conditions: active mouse DPP1 enzyme, H-Gly-Arg-AMC substrate, 10 minutes pre-incubation at 37° C., pH 5.5; average of n runs; read-out: Avg. IC50 (Mouse DPP1 enzyme IC50 value ranges)
T1 construct: Each subunit is composed of an N-terminal fragment, a heavy chain and a light chain; purchased R&D Systems
Protocol: Example 96: Mouse DPP1 Enzyme IC50 Assay
Test articles were applied to active mouse DPP1 enzyme (R&D Systems; Minneapolis, MN) in Assay Buffer (50 mM MES pH 5.5, 50 mM NaCl, 5 mM DTT) in a total reaction volume of 125 μL. 25 μL of compound in Assay Buffer plus […] was first added to 50 μL of active mouse DPP1 enzyme at a concentration of 62.5 pg/μL and allowed to pre-incubate for 10 minutes at 37° C. after which 50 μL of […] H-Gly-Arg-AMC substrate (Bachem; St. Torrance, CA) was added, giving final substrate concentration of 400 µM and a final DMSO concentration of […]. Substrate cleavage was measured for 90 minutes at 37° C., with fluorescence at Excitation/Emission 350/450 nm measured every 5 minutes. DPP1 concentration was interpolated based on its activity relative to a standard curve of recombinant active mouse DPP enzyme. IC50 values for each compound were calculated via the XLFit (IDBS Version 5.3.1.3) Add-On to Microsoft Excel using the four parameter fit equation y=(A+((B−A)/(1+((C/x)^D)))), which appears as equation number 205 (4 Parameter Logistic Model or Sigmoidal Dose-Response Model) in XLFit. Default constraints were used for each Parameter. IC50 was defined as the compound concentration at which 50% of enzyme activity was inhibited when compared to the no-compound control.
In Table 2, *** represent average IC50≤5 nM, ** represents average IC50 in the range of 5-20 nM, and * represents average IC50 in the range of ≥20 nM, where the designations were made solely based on the average value without taking into account of the standard deviations.

[3] = target: DPP1 in HL-60 cells (Homo sapiens, UniProt P53634); assay: DPP1 Cell IC50 assay; assay type: cell-based; design: host or cells: HL-60 cells; conditions: 60 min pre-incubation, H-Gly-Phe-AFC substrate, average of n runs, read-out: Avg. IC50 (DPP1 Cell IC50 value ranges)
In short: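 HL-60 cells in PBS (5×10^5 live cells per mL) pre-incubated with compound (0.5% DMSO) 60 min at 37° C, 5% CO2, then H-Gly-Phe-AFC substrate (500 μM stock) added for 30 min. Fluorescence at 400/505 nm; % inhibition vs vehicle wells, IC50 from four-parameter logistic fit.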

human DPP1 enzyme, sequence (P53634 25-134 limits assumed): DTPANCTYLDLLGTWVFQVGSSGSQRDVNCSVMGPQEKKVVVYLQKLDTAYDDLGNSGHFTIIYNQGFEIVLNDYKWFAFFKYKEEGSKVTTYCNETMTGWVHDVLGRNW
human DPP1 enzyme, sequence (P53634 231-394 limits assumed): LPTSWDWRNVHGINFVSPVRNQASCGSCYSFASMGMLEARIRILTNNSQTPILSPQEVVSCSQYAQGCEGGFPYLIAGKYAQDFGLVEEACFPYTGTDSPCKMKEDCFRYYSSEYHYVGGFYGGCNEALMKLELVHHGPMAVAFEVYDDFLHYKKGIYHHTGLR
human DPP1 enzyme, sequence (P53634 395-463 limits assumed): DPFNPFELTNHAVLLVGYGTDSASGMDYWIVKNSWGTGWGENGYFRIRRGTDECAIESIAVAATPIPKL
DPP1 in HL-60 cells, sequence (P53634 25-463): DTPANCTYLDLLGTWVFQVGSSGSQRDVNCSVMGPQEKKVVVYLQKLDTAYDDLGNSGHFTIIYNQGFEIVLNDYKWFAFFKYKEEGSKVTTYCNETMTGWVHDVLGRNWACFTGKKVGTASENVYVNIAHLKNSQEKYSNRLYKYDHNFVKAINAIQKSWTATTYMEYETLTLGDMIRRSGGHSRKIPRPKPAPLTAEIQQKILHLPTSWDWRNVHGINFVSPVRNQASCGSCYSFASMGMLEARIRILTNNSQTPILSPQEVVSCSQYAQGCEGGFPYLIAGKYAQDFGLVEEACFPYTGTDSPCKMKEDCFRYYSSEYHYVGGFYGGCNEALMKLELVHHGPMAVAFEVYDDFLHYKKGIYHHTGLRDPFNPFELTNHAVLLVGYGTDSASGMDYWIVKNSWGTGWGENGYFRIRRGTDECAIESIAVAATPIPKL
T1 sequence (P97821 25-134 limits assumed): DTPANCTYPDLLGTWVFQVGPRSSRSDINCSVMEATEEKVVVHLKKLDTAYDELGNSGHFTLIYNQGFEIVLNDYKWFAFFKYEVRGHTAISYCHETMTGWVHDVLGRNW
T1 sequence (P97821 231-393 limits assumed): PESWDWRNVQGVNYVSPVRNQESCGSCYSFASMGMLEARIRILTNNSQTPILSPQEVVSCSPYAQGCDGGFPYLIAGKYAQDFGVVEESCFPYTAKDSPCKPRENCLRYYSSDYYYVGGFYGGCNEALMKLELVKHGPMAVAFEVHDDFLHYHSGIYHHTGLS
T1 sequence (P97821 394-462 limits assumed): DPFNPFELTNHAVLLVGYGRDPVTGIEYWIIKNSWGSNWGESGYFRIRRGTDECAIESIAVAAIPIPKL

Row | Structure (SMILES) | IC50 [1] | IC50 [2] | IC50 [3]
1 | CN1CCC2(CCc3cc(-c4ccc(C[C@@H](C#N)NC(=O)[C@@H]5CNCCCO5)cc4)ccc32)CC1 [Compound 26, (2S)—N-[(1S)-1-cyano-2-(4-{1′-methyl-2,3-dihydrospiro[indene-1,4′-piperidin]-5-yl}phenyl)ethyl]-1,4-oxazepane-2-carboxamide] | > 15 nM | > 20 nM | > 2.5 nM
2 | CN1C(=O)C2(CCCN(C3COC3)C2)c2cc(-c3ccc(C[C@@H](C#N)NC(=O)[C@@H]4CNCCCO4)cc3)ccc21 (stereo partly drawn) [Compound 28, (2S)—N-[(1S)-1-cyano-2-{4-[1-methyl-1′-(oxetan-3-yl)-2-oxospiro[indole-3,3′-piperidin]-5-yl]phenyl}ethyl]-1,4-oxazepane-2-carboxamide] | > 15 nM | > 20 nM | > 2.5 nM
3 | CCN1C(=O)Cc2ccc(-c3ccc(C[C@@H](C#N)NC(=O)[C@@H]4CNCCCO4)cc3)cc21 [Compound 32, (2S)—N-[(1S)-1-cyano-2-[4-(1-ethyl-2-oxo-3H-indol-6-yl)phenyl]ethyl]-1,4-oxazepane-2-carboxamide] | – | > 20 nM | –
4 | Cn1nc(F)c2ccc(-c3ccc(C[C@@H](C#N)NC(=O)[C@@H]4CNCCCO4)cc3)cc21 [Compound A1, (S)—N—((S)-1-cyano-2-(4-(3-fluoro-1-methyl-1H-indazol-6-yl)phenyl)ethyl)-1,4-oxazepane-2-carboxamide] | > 15 nM | > 20 nM | > 2.5 nM
5 | N#C[C@H](Cc1ccc(-c2ccc3c(c2)CCNC3=O)cc1)NC(=O)[C@@H]1CNCCCO1 [Compound A2, (2S)—N-[(1S)-1-cyano-2-[4-(1-oxo-3,4-dihydro-2H-isoquinolin-6-yl)phenyl]ethyl]-1,4-oxazepane-2-carboxamide] | > 15 nM | > 20 nM | > 2.5 nM
6 | CN1CCC(n2ncc3ccc(-c4ccc(C[C@@H](C#N)NC(=O)[C@@H]5CNCCCO5)c(F)c4)cc32)CC1 [Compound A3, (2S)—N-[(1S)-1-cyano-2-{2-fluoro-4-[1-(1-methylpiperidin-4-yl)indazol-6-yl]phenyl}ethyl]-1,4-oxazepane-2-carboxamide] | 5 to 15 nM | > 20 nM | > 2.5 nM
7 | N#C[C@H](Cc1ccc(-c2ccc3c(c2)CCCS3)cc1)NC(=O)[C@@H]1CNCCCO1 [Compound A5, (2S)—N-[(1S)-1-cyano-2-[4-(3,4-dihydro-2H-1-benzothiopyran-6-yl)phenyl]ethyl]-1,4-oxazepane-2-carboxamide] | > 15 nM | > 20 nM | > 2.5 nM
8 | Cc1cn2cc(-c3ccc(C[C@@H](C#N)NC(=O)[C@@H]4CNCCCO4)cc3)cc2c(C)n1 [Compound A8, (2S)—N-[(1S)-1-cyano-2-(4-{1,3-dimethylpyrrolo[1,2-a]pyrazin-7-yl}phenyl)ethyl]-1,4-oxazepane-2-carboxamide] | > 15 nM | > 20 nM | > 2.5 nM
9 | N#C[C@H](Cc1ccc(-c2ccc3c(n2)CCCN3)cc1)NC(=O)[C@@H]1CNCCCO1 [Compound A10, (2S)—N-[(1S)-1-cyano-2-[4-(5,6,7,8-tetrahydro-1,5-naphthyridin-2-yl)phenyl]ethyl]-1,4-oxazepane-2-carboxamide] | > 15 nM | > 20 nM | > 2.5 nM
10 | CN1C(=O)CCc2cc(-c3ccc(C[C@@H](C#N)NC(=O)[C@@H]4CNCCCO4)cc3)ccc21 [Compound A21, (2S)—N-[(1S)-1-cyano-2-[4-(1-methyl-2-oxo-3,4-dihydroquinolin-6-yl)phenyl]ethyl]-1,4-oxazepane-2-carboxamide] | > 15 nM | > 20 nM | > 2.5 nM

The next lines start with the values.

Row | IC50 [1] | IC50 [2] | IC50 [3] | Structure (SMILES)
11 | > 15 nM | > 20 nM | > 2.5 nM | N#CC(Cc1cc2c(cc1F)-c1ccc(F)cc1CO2)NC(=O)[C@@H]1CNCCCCO1 (mixture of isomers) [Compound B16, (2S)—N-(1-cyano-2-{2,8-difluoro-6H-benzo[c]chromen-3-yl}ethyl)-1,4-oxazocane-2-carboxamide]
12 | 5 to 15 nM and > 15 nM | 5 to 20 nM | 1 to 2.5 nM | N#Cc1ccc2c(c1)COc1cc(CC(C#N)NC(=O)[C@@H]3CNCCCCO3)c(F)cc1-2 (single isomer, unassigned) [Compound B9]
13 | > 15 nM | > 20 nM | > 2.5 nM | N#C[C@H](Cc1ccc(-c2ccc(S(F)(F)(F)(F)F)cc2)cc1)NC(=O)[C@@H]1CNCCCO1 [Compound 6, (S)—N—((S)-1-cyano-2-(4′-(pentafluoro-16-sulfaneyl)-[1,1′-biphenyl]-4-yl)ethyl)-1,4-oxazepane-2-carboxamide]
14 | > 15 nM | > 20 nM | > 2.5 nM | N#Cc1ccc(-c2ccc(C[C@@H](C#N)NC(=O)[C@@H]3CNCCCO3)cc2)cc1C(F)(F)F [Compound 7, (2S)—N-[(1S)-1-cyano-2-[4′-cyano-3′-(trifluoromethyl)-[1,1′-biphenyl]-4-yl]ethyl]-1,4-oxazepane-2-carboxamide]
15 | > 15 nM | > 20 nM | > 2.5 nM | N#Cc1ccc(-c2ccc(C[C@@H](C#N)NC(=O)[C@@H]3CNCCCO3)cc2)cc1C1CC1 [Compound 8, (2S)—N-[(1S)-1-cyano-2-{4′-cyano-3′-cyclopropyl-[1,1′-biphenyl]-4-yl}ethyl]-1,4-oxazepane-2-carboxamide]
16 | > 15 nM | > 20 nM | > 2.5 nM | CN1CCN(Cc2ccc(-c3ccc(C[C@@H](C#N)NC(=O)[C@@H]4CNCCCO4)cc3)cc2)CC1 [Compound 9, (2S)—N-[(1S)-1-cyano-2-{4′-[(4-methylpiperazin-1-yl)methyl]-[1,1′-biphenyl]-4-yl}ethyl]-1,4-oxazepane-2-carboxamide]
17 | > 15 nM | > 20 nM | > 2.5 nM | Cc1nc(-c2ccc(C[C@@H](C#N)NC(=O)[C@@H]3CNCCCO3)cc2)sc1C#N [Compound 10, (2S)—N-[(1S)-1-cyano-2-[4-(5-cyano-4-methyl-1,3-thiazol-2-yl)phenyl]ethyl]-1,4-oxazepane-2-carboxamide]
18 | > 15 nM | > 20 nM | > 2.5 nM | Cc1csc(-c2ccc(C[C@@H](C#N)NC(=O)[C@@H]3CNCCCO3)cc2)n1 [Compound 11, (2S)—N-[(1S)-1-cyano-2-[4-(4-methyl-1,3-thiazol-2-yl)phenyl]ethyl]-1,4-oxazepane-2-carboxamide]
19 | > 15 nM | > 20 nM | > 2.5 nM | N#C[C@H](Cc1ccc(-c2ccc(C(F)(F)F)cc2)cc1)NC(=O)[C@@H]1CNCCCO1 [Compound 12, (2S)—N-[(1S)-1-cyano-2-[4′-(trifluoromethyl)-[1,1′-biphenyl]-4-yl]ethyl]-1,4-oxazepane-2-carboxamide]
20 | 5 to 15 nM | 5 to 20 nM | > 2.5 nM | CN1CCC2(CC1)OC(=O)c1ccc(-c3ccc(C[C@@H](C#N)NC(=O)[C@@H]4CNCCCO4)cc3)cc12 [Compound 14, (2S)—N-[(1S)-1-cyano-2-(4-{1′-methyl-3-oxospiro[2-benzofuran-1,4′-piperidin]-6-yl}phenyl)ethyl]-1,4-oxazepane-2-carboxamide]
21 | > 15 nM | > 20 nM | > 2.5 nM | CN1CCN(S(=O)(=O)c2ccc(-c3ccc(C[C@@H](C#N)NC(=O)[C@@H]4CNCCCO4)cc3)cc2)CC1 [Compound 20, (2S)—N-[(1S)-1-cyano-2-[4′-(4-methylpiperazin-1-ylsulfonyl)-[1,1′-biphenyl]-4-yl]ethyl]-1,4-oxazepane-2-carboxamide]
22 | > 15 nM | > 20 nM | > 2.5 nM | CN1CCN(S(=O)(=O)c2ccc(-c3ccc(C[C@@H](C#N)NC(=O)[C@@H]4CNCCCO4)c(F)c3)cc2)CC1 [Compound 21, (2S)—N-[(1S)-1-cyano-2-[3-fluoro-4′-(4-methylpiperazin-1-ylsulfonyl)-[1,1′-biphenyl]-4-yl]ethyl]-1,4-oxazepane-2-carboxamide]
